The source of these data is US7601336B2, “Pharmaceutical aerosol composition” (Chiesi Farmaceutici S.p.A., priority 1997, dated 2009).

The nature of this data set: Aerodynamic particle size distribution by Andersen Cascade Impactor (ACI), ten cumulative actuations, drug on plates by HPLC. The conditions noted are these: HFA 134a. Type of data set: physicochemical. On the procedure:
The aerosol compositions of the invention described below were prepared by the following method. The required components of a composition were added into a can in the following order: drug, non-volatile additive, absolute ethanol. After crimping of the valve on to the can, the propellant was added through the valve. The weight gain of the can after each component was added was recorded to allow the percentage, by weight, of each component in the formulation to be calculated. The aerodynamic particle size distribution of each formulation was characterized using a Multistage Cascade Impactor according to the procedure described in the European Pharmacopoeia 2nd edition, 1995, part V.5.9.1. pages 15-17. In this specific case an Andersen Cascade Impactor (ACI) was used. Results represented were obtained from ten cumulative actuations or a formulation. Deposition of the drug on each ACI plate was determined by high pressure liquid chromatography. The mass median aerodynamic diameter (MMAD) and geometric standard deviation (GSD) were calculated from plots of the cumulative percentage undersize of drug collected on each ACI plate (probit scale), against the upper cut off diameter for each respective ACI plate (log10 scale). The fine particle dose of each formulation was determined from the mass of drug collected on Stages 2 through to Filter (<5.8 μm) divided by the number of actuations per experiment.

The mark [1] stands for this setting: Flunisolide 50 mg/10 ml, ethanol 15.0 ± 0.1%, menthol 0% (w/w), glycerol 0% (w/w), actuator orifice 0.30 mm.
Where [2] appears, read: Flunisolide 50 mg/10 ml, ethanol 15.0 ± 0.1%, menthol 0.4% (w/w), glycerol 0.9% (w/w), actuator orifice 0.30 mm.
Where [3] appears, read: Salbutamol base 20 mg/10 ml, ethanol 15% (w/w), glycerol 0% (w/w), oleic acid 0.35% (w/w), actuator orifice 0.30 mm.
Setting [4] is: Salbutamol base 20 mg/10 ml, ethanol 15% (w/w), glycerol 1.3% (w/w), oleic acid 0.36% (w/w), actuator orifice 0.30 mm.
The mark [5] stands for this setting: combination BDP 50 mg/10 ml + Salbutamol base 20 mg/10 ml, ethanol 15.4 ± 0.2% (w/w), glycerol 0%, oleic acid 0%, actuator exit orifice 0.33 mm.
The mark [6] stands for this setting: combination BDP 50 mg/10 ml + Salbutamol base 20 mg/10 ml, ethanol 15.4 ± 0.2% (w/w), glycerol 0%, oleic acid 0.3%, actuator exit orifice 0.33 mm.
Where [7] appears, read: combination BDP 50 mg/10 ml + Salbutamol base 20 mg/10 ml, ethanol 15.4 ± 0.2% (w/w), glycerol 0%, oleic acid 1.3%, actuator exit orifice 0.30 mm.
[8] abbreviates: combination BDP 50 mg/10 ml + Salbutamol base 20 mg/10 ml, ethanol 15.4 ± 0.2% (w/w), glycerol 1.2%, oleic acid 0.3%, actuator exit orifice 0.30 mm.

In the case of `CC1(C)O[C@@H]2C[C@H]3[C@@H]4C[C@H](F)C5=CC(=O)C=C[C@]5(C)[C@H]4[C@@H](O)C[C@]3(C)[C@]2(C(=O)CO)O1` [Flunisolide], under setting [1], the “Emitted dose” value is 217.1 µg, the “Fine Particle Dose (FPD)” value was found to be 76.85 µg, the GSD was determined as 2.15 and the MMAD amounted to 1.8 µm. Also, under setting [2], the “Emitted dose” value was determined as 221.6 µg, the “Fine Particle Dose (FPD)” value stood at 77.84 µg, the GSD is recorded as 2.1 and the MMAD turned out to be 2.9 µm.

As for `CC(C)(C)NCC(O)c1ccc(O)c(CO)c1` (centres unmarked) [Salbutamol base], the Emitted dose is, setting by setting: under setting [3], 85.8 µg; under setting [4], 92.0 µg; under setting [5], 82.5 µg; under setting [6], 84.8 µg; under setting [7], 85.9 µg; under setting [8], 85.3 µg. Moreover, the FPD under setting [3] was found to be 29.1 µg; the FPD under setting [4] was determined as 25.2 µg; the FPD under setting [5] was found to be 26.9 µg; the FPD under setting [6] stood at 24.0 µg; the FPD under setting [7] was 23.9 µg; the FPD under setting [8] is 25.1 µg. Besides, the GSD under setting [3] is 2.3; the GSD under setting [4] is listed as 2.4; the GSD under setting [5] is 2.2; the GSD under setting [6] was found to be 2.6; the GSD under setting [7] amounted to 2.1; the GSD under setting [8] stood at 2.0. In addition, the MMAD by setting is: under setting [3], 1.7 μm; under setting [4], 2.8 μm; under setting [5], 1.7 μm; under setting [6], 2.0 μm; under setting [7], 2.4 μm; under setting [8], 3.0 μm.
